From ChEMBL document CHEMBL1132501, “Synthesis and anti-Helicobacter pylori activity of FR182024, a new cephem derivative” (1999)

Legend:
[1] = The compound was tested against penicillinase (TEM) and its stability towards beta-lactamase relative to cephaloridine was evaluated
[2] = test system: Beta-lactamase (Bacteroides fragilis); test: The compound was tested against Bacteroides fragilis FP784 its stability towards beta-lactamase relative to cephaloridine was evaluated
[3] = The compound was tested against penicillinase (TEM) and its stability towards beta-lactamase was evaluated
[4] = The compound was tested against Penicillinase (TEM) and its stability towards beta-lactamase relative to cephaloridine was evaluated; assay type: functional

Structure (SMILES)	Vmax [1]	Vmax / Km [1]	Vmax / Km [2]	Km [3] [µg/mL]	Vmax [4]	Vmax / Km [4]
Cc1nnc(SC2=C(C(=O)O)N3C(=O)[C@@H](NC(=O)Cc4ccccc4)[C@H]3SC2)s1	3.61	6.33	1.98	47.4		
O=C(Cc1cccs1)N[C@@H]1C(=O)N2C(C(=O)[O-])=C(C[n+]3ccccc3)CS[C@H]12					1	1
